Experiments:
Type in all cases: in vivo
Setaria faberi (SETFA) [1] = assay: Pre-emergence herbicide test, glasshouse, percentage damage; conditions: rate 1000 g/ha, evaluated after 13 days
Method in brief: (§1)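 Pot-grown plants were sprayed at 500 g/ha unless otherwise stated, in acetone/water (50:50) with 0.5% Tween 20. Pre-emergence spraying was 1 day after sowing and post-emergence after 8 days, in a glasshouse at 24/16° C, 14 h light, 65% humidity. Percentage damage was scored 13 days later on a 1–5 scale (5=81-100%).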

[2] = system: Ipomoea hederacea (IPOHE); assay: as above; conditions: rate 1000 g/ha, evaluated after 13 days
Method in brief: as §1

Lolium perenne (LOLPE) [3] = assay: as above; conditions: rate 1000 g/ha, evaluated after 13 days
Method in brief: as §1

[4] = system: Amaranthus retoflexus (AMARE); assay: as above; conditions: rate 1000 g/ha, evaluated after 13 days
Method in brief: as §1

Solanum nigrum (SOLNI) [5] = assay: as above; conditions: rate 1000 g/ha, evaluated after 13 days
Method in brief: as §1

[6] = system: Echinochloa crus-galli (ECHCG); assay: as above; conditions: rate 1000 g/ha, evaluated after 13 days
Method in brief: as §1

Setaria faberi (SETFA) [7] = assay: Post-emergence herbicide test, glasshouse, percentage damage; conditions: 1000 g/ha, evaluated after 13 days
Method in brief: as §1

[8] = system: Ipomoea hederacea (IPOHE); assay: as above; conditions: 1000 g/ha, evaluated after 13 days
Method in brief: as §1

Lolium perenne (LOLPE) [9] = assay: as above; conditions: 1000 g/ha, evaluated after 13 days
Method in brief: as §1

[10] = system: Amaranthus retoflexus (AMARE); assay: as above; conditions: 1000 g/ha, evaluated after 13 days
Method in brief: as §1

Solanum nigrum (SOLNI) [11] = assay: as above; conditions: 1000 g/ha, evaluated after 13 days
Method in brief: as §1

[12] = system: Echinochloa crus-galli (ECHCG); assay: as above; conditions: 1000 g/ha, evaluated after 13 days
Method in brief: as §1

SMILES	Pre-emergence Test SETFA percentage damage (five point scale) (Setaria faberi (SETFA) [1])	Pre-emergence Test IPOHE percentage damage (five point scale) [2]	Pre-emergence Test LOLPE percentage damage (five point scale) (Lolium perenne (LOLPE) [3])	Pre-emergence Test AMARE percentage damage (five point scale) [4]	Pre-emergence Test SOLNI percentage damage (five point scale) (Solanum nigrum (SOLNI) [5])	Pre-emergence Test ECHCG percentage damage (five point scale) [6]	percentage damage caused to the plant, SETFA (Setaria faberi (SETFA) [7])	percentage damage caused to the plant, IPOHE [8]	percentage damage caused to the plant, LOLPE (Lolium perenne (LOLPE) [9])	percentage damage caused to the plant, AMARE [10]	percentage damage caused to the plant, SOLNI (Solanum nigrum (SOLNI) [11])	percentage damage caused to the plant, ECHCG [12]
N#Cc1ccc(Oc2cccc(Br)c2-c2cc(C(F)F)no2)nc1 [Compound A102]	5 (5=81-100%)	4 (4=61-80%)	5 (5=81-100%)	5 (5=81-100%)	4 (4=61-80%)	5 (5=81-100%)	5 (5=81-100%)	5 (5=81-100%)	4 (4=61-80%)	5 (5=81-100%)	5 (5=81-100%)	4 (4=61-80%)
Fc1cc(Br)cnc1Oc1cccc(Br)c1-c1cc(C(F)F)no1 [Compound A103]	5 (5=81-100%)	5 (5=81-100%)	5 (5=81-100%)	5 (5=81-100%)	3 (3=41-60%)	5 (5=81-100%)	5 (5=81-100%)	5 (5=81-100%)	5 (5=81-100%)	5 (5=81-100%)	5 (5=81-100%)	4 (4=61-80%)
Fc1cc(C(F)(F)F)cnc1Oc1cccc(Br)c1-c1cc(C(F)F)no1 [Compound A104]	5 (5=81-100%)	4 (4=61-80%)	4 (4=61-80%)	4 (4=61-80%)	2 (2=21-40%)	4 (4=61-80%)	4 (4=61-80%)	4 (4=61-80%)	3 (3=41-60%)	4 (4=61-80%)	5 (5=81-100%)	4 (4=61-80%)
N#Cc1cc(Cl)cnc1Oc1cccc(Br)c1-c1cc(C(F)F)no1 [Compound A105]	5 (5=81-100%)	5 (5=81-100%)	5 (5=81-100%)	5 (5=81-100%)	5 (5=81-100%)	5 (5=81-100%)	5 (5=81-100%)	5 (5=81-100%)	4 (4=61-80%)	5 (5=81-100%)	5 (5=81-100%)	4 (4=61-80%)
FC(F)c1cc(-c2c(Br)cccc2Oc2ccc(Br)cn2)on1 [Compound A106]	5 (5=81-100%)	3 (3=41-60%)	5 (5=81-100%)	4 (4=61-80%)	3 (3=41-60%)	5 (5=81-100%)	5 (5=81-100%)	4 (4=61-80%)	5 (5=81-100%)	5 (5=81-100%)	5 (5=81-100%)	4 (4=61-80%)
N#Cc1cccnc1Oc1cccc(Br)c1-c1cc(C(F)F)no1 [Compound A107]	5 (5=81-100%)	3 (3=41-60%)	2 (2=21-40%)	5 (5=81-100%)	2 (2=21-40%)	4 (4=61-80%)	5 (5=81-100%)	4 (4=61-80%)	3 (3=41-60%)	5 (5=81-100%)	5 (5=81-100%)	4 (4=61-80%)
